Data from ChEMBL document CHEMBL5357031, “Design and Synthesis of Cytotoxic Water-Soluble Rocaglaol Derivatives against HEL Cells by Inhibiting Fli-1” (J Nat Prod, 2024).
pIC50: −log10 of the molar value.

What was measured:
[1] = system: HEL; assay: Induction of cell cycle arrest in HEL cells assessed as cell accumulation at G2/M phase at 0.4 uM incubated for 24 hrs by […] (reference value: 16.18 %); format: functional, Homo sapiens
[2] = system: HEL; assay: Induction of apoptosis in HEL cells assessed as late apoptotic cells at 0.4 uM incubated for 24 hrs by Annexin V/PI staining based flow cytometry (reference value: 1.98 %); format: functional, Homo sapiens
[3] = system: HEL; assay: Induction of apoptosis in HEL cells assessed as viable cells at 0.2 uM incubated for 48 hrs by Annexin V/PI staining based flow cytometry (reference value: 95.63 %); format: functional; conditions: Homo sapiens, read-out: Activity
[4] = system: HEL; assay: Induction of apoptosis in HEL cells assessed as early apoptotic cells at 0.1 uM incubated for 24 hrs by Annexin V/PI staining based flow cytometry (reference value: 1.47 %); format: functional, Homo sapiens
[5] = system: HEL; assay: Induction of cell cycle arrest in HEL cells assessed as cell accumulation at G1 phase at 0.4 uM incubated for 24 hrs by […] (reference value: 39.11 %); format: functional, Homo sapiens
[6] = system: HEL; assay: Induction of cell cycle arrest in HEL cells assessed as cell accumulation at S phase at 0.4 uM incubated for 48 hrs by […] (reference value: 33.66 %); format: functional, Homo sapiens
[7] = system: HEL; assay: Induction of apoptosis in HEL cells assessed as viable cells at 0.4 uM incubated for 48 hrs by Annexin V/PI staining based flow cytometry (reference value: 95.63 %); format: functional; conditions: Homo sapiens, read-out: Activity
[8] = system: HEL; assay: Induction of cell cycle arrest in HEL cells assessed as cell accumulation at G2/M phase at 0.2 uM incubated for 48 hrs by […] (reference value: 20.36 %); format: functional, Homo sapiens
[9] = system: HEL; assay: Induction of cell cycle arrest in HEL cells assessed as cell accumulation at G2/M phase at 0.2 uM incubated for 24 hrs by […] (reference value: 16.18 %); format: functional, Homo sapiens
[10] = system: HEL; assay: Induction of apoptosis in HEL cells assessed as viable cells at 0.1 uM incubated for 48 hrs by Annexin V/PI staining based flow cytometry (reference value: 95.63 %); format: functional; conditions: Homo sapiens, read-out: Activity
[11] = system: HEL; assay: Induction of cell cycle arrest in HEL cells assessed as cell accumulation at G2/M phase at 0.1 uM incubated for 48 hrs by […] (reference value: 20.36 %); format: functional, Homo sapiens
[12] = system: HEL; assay: Induction of cell cycle arrest in HEL cells assessed as cell accumulation at G1 phase at 0.4 uM incubated for 48 hrs by […] (reference value: 54.17 %); format: functional, Homo sapiens
[13] = system: HEL; assay: Induction of apoptosis in HEL cells assessed as late apoptotic cells at 0.4 uM incubated for 48 hrs by Annexin V/PI staining based flow cytometry (reference value: 1.83 %); format: functional, Homo sapiens
[14] = system: HEL; assay: Induction of apoptosis in HEL cells assessed as viable cells at 0.4 uM incubated for 24 hrs by Annexin V/PI staining based flow cytometry (reference value: 94.94 %); format: functional; conditions: Homo sapiens, read-out: Activity
[15] = system: HEL; assay: Induction of cell cycle arrest in HEL cells assessed as cell accumulation at G1 phase at 0.1 uM incubated for 48 hrs by […] (reference value: 54.17 %); format: functional, Homo sapiens
[16] = system: HEL; assay: Induction of apoptosis in HEL cells assessed as viable cells at 0.2 uM incubated for 24 hrs by Annexin V/PI staining based flow cytometry (reference value: 94.94 %); format: functional; conditions: Homo sapiens, read-out: Activity
[17] = system: HEL; assay: Induction of cell cycle arrest in HEL cells assessed as cell accumulation at G2/M phase at 0.1 uM incubated for 24 hrs by […] (reference value: 16.18 %); format: functional, Homo sapiens
[18] = system: HEL; assay: Induction of apoptosis in HEL cells assessed as early apoptotic cells at 0.4 uM incubated for 24 hrs by Annexin V/PI staining based flow cytometry (reference value: 1.47 %); format: functional, Homo sapiens
[19] = system: HEL; assay: Cytotoxicity against HEL cells assessed as cell growth inhibition incubated for 72 hrs by MTT assay; format: functional, cell-based, Homo sapiens; conditions: hel
[20] = system: SW480; assay: Cytotoxicity against human SW480 cells assessed as cell growth inhibition incubated for 72 hrs by MTT assay; format: functional, cell-based; conditions: sw480
[21] = system: HEL; assay: Induction of apoptosis in HEL cells assessed as necrotic cells at 0.1 uM incubated for 48 hrs by Annexin V/PI staining based flow cytometry (reference value: 0.92 %); format: functional, Homo sapiens
[22] = system: HEL; assay: Induction of apoptosis in HEL cells assessed as early apoptotic cells at 0.2 uM incubated for 48 hrs by Annexin V/PI staining based flow cytometry (reference value: 1.62 %); format: functional, Homo sapiens
[23] = system: HEL; assay: Induction of apoptosis in HEL cells assessed as necrotic cells at 0.4 uM incubated for 24 hrs by Annexin V/PI staining based flow cytometry (reference value: 1.61 %); format: functional, Homo sapiens
[24] = system: HEL; assay: Induction of apoptosis in HEL cells assessed as early apoptotic cells at 0.4 uM incubated for 48 hrs by Annexin V/PI staining based flow cytometry (reference value: 1.62 %); format: functional, Homo sapiens
[25] = system: HEL; assay: Induction of apoptosis in HEL cells assessed as necrotic cells at 0.4 uM incubated for 48 hrs by Annexin V/PI staining based flow cytometry (reference value: 0.92 %); format: functional, Homo sapiens
[26] = system: HEL; assay: Induction of apoptosis in HEL cells assessed as early apoptotic cells at 0.1 uM incubated for 48 hrs by Annexin V/PI staining based flow cytometry (reference value: 1.62 %); format: functional, Homo sapiens
[27] = system: HEL; assay: Induction of apoptosis in HEL cells assessed as late apoptotic cells at 0.1 uM incubated for 48 hrs by Annexin V/PI staining based flow cytometry (reference value: 1.83 %); format: functional, Homo sapiens
[28] = system: HEL; assay: Induction of apoptosis in HEL cells assessed as early apoptotic cells at 0.2 uM incubated for 24 hrs by Annexin V/PI staining based flow cytometry (reference value: 1.47 %); format: functional, Homo sapiens
[29] = system: HEL; assay: Induction of apoptosis in HEL cells assessed as late apoptotic cells at 0.2 uM incubated for 24 hrs by Annexin V/PI staining based flow cytometry (reference value: 1.98 %); format: functional, Homo sapiens
[30] = system: HEL; assay: Induction of cell cycle arrest in HEL cells assessed as cell accumulation at S phase at 0.2 uM incubated for 48 hrs by […] (reference value: 33.66 %); format: functional, Homo sapiens
[31] = system: HEL; assay: Induction of apoptosis in HEL cells assessed as late apoptotic cells at 0.2 uM incubated for 48 hrs by Annexin V/PI staining based flow cytometry (reference value: 1.83 %); format: functional, Homo sapiens
[32] = system: HEL; assay: Induction of cell cycle arrest in HEL cells assessed as cell accumulation at G1 phase at 0.2 uM incubated for 48 hrs by […] (reference value: 54.17 %); format: functional, Homo sapiens
[33] = system: HEL; assay: Induction of cell cycle arrest in HEL cells assessed as cell accumulation at S phase at 0.2 uM incubated for 24 hrs by […] (reference value: 16.18 %); format: functional, Homo sapiens
[34] = system: HEL; assay: Induction of cell cycle arrest in HEL cells assessed as cell accumulation at S phase at 0.1 uM incubated for 48 hrs by […] (reference value: 33.66 %); format: functional, Homo sapiens
[35] = system: HEL; assay: Induction of apoptosis in HEL cells assessed as late apoptotic cells at 0.1 uM incubated for 24 hrs by Annexin V/PI staining based flow cytometry (reference value: 1.98 %); format: functional, Homo sapiens
[36] = system: MDA-MB-231
Description: Cytotoxicity against human MDA-MB-231 cells assessed as cell growth inhibition incubated for 72 hrs by MTT assay

[37] = system: HEL; assay: Induction of apoptosis in HEL cells assessed as necrotic cells at 0.1 uM incubated for 24 hrs by Annexin V/PI staining based flow cytometry (reference value: 1.61 %); format: functional, Homo sapiens
[38] = system: HEL; assay: Induction of apoptosis in HEL cells assessed as necrotic cells at 0.2 uM incubated for 48 hrs by Annexin V/PI staining based flow cytometry (reference value: 0.92 %); format: functional, Homo sapiens
[39] = system: HEL; assay: Induction of cell cycle arrest in HEL cells assessed as cell accumulation at S phase at 0.4 uM incubated for 24 hrs by […] (reference value: 16.18 %); format: functional, Homo sapiens
[40] = system: HEL; assay: Induction of cell cycle arrest in HEL cells assessed as cell accumulation at S phase at 0.1 uM incubated for 24 hrs by […] (reference value: 16.18 %); format: functional, Homo sapiens
[41] = system: HEL; assay: Induction of apoptosis in HEL cells assessed as necrotic cells at 0.2 uM incubated for 24 hrs by Annexin V/PI staining based flow cytometry (reference value: 1.61 %); format: functional, Homo sapiens
[42] = system: HEL; assay: Induction of cell cycle arrest in HEL cells assessed as cell accumulation at G1 phase at 0.1 uM incubated for 24 hrs by […] (reference value: 39.11 %); format: functional, Homo sapiens
[43] = system: HEL; assay: Induction of cell cycle arrest in HEL cells assessed as cell accumulation at G1 phase at 0.2 uM incubated for 24 hrs by Western blot analysis (reference value: 39.11 %); format: functional, Homo sapiens
[44] = Solubility of compound in PBS at pH 7.4 at 1.7 mg measured for 24 hrs by HPLC-UV analysis; format: physicochemical
[45] = system: HEL; assay: Induction of apoptosis in HEL cells assessed as viable cells at 0.1 uM incubated for 24 hrs by Annexin V/PI staining based flow cytometry (reference value: 94.94 %); format: functional; conditions: Homo sapiens, read-out: Activity
[46] = system: HEL; assay: Induction of cell cycle arrest in HEL cells assessed as cell accumulation at G2/M phase at 0.4 uM incubated for 48 hrs by […] (reference value: 20.36 %); format: functional, Homo sapiens

## COc1cc(OC)c2c(c1)O[C@@]1(c3ccc(OCCCCCN4CCN(C)CC4)cc3)[C@H](c3ccccc3)C[C@@H](O)[C@@]21O.O=C(O)/C=C/C(=O)O (racemic; form 2)
[1]
  Activity: 18.31%
[2]
  Activity: 2.1%
[3]
  viability at 0.2 µM: 82.9%
[4]
  Activity: 1.34%
[5]
  Activity: 54.17%
[6]
  Activity: 19.87%
[7]
  viability at 0.4 µM: 68.9%
[8]
  Activity: 15.61%
[9]
  Activity: 20.55%
[10]
  viability at 0.1 µM: 92%
[11]
  Activity: 25.52%
[12]
  Activity: 66.15%
[13]
  Activity: 10.08%
[14]
  viability at 0.4 µM: 94.6%
[15]
  Activity: 43.16%
[16]
  viability at 0.2 µM: 95.2%
[17]
  Activity: 21.09%
[18]
  Activity: 2.17%
[19]
  pIC50: 6.72
[20]
  pIC50: < 6.00
[21]
  Activity: 1.02%
[22]
  Activity: 6.37%
[23]
  Activity: 1.12%
[24]
  Activity: 18.85%
[25]
  Activity: 2.21%
[26]
  Activity: 3.45%
[27]
  Activity: 3.54%
[28]
  Activity: 1.5%
[29]
  Activity: 1.66%
[30]
  Activity: 19.87%
[31]
  Activity: 7.65%
[32]
  Activity: 62.59%
[33]
  Activity: 27.85%
[34]
  Activity: 30.25%
[35]
  Activity: 2.02%
[36]
  pIC50: < 6.00
[37]
  Activity: 1.96%
[38]
  Activity: 3.11%
[39]
  Activity: 27.85%
[40]
  Activity: 39.19%
[41]
  Activity: 1.68%
[42]
  Activity: 39.54%
[43]
  Activity: 50.73%
[44]
  solubility at 24 h: 12.5 mg/mL
[45]
  viability at 0.1 µM: 94.7%
[46]
  Activity: 8.35%
